Measurements published in patent US20220265644A1, “FIXED DOSE COMBINATION DRUG FOR THE TREATMENT OF MALARIA” (priority 2020, published 2022).

Tests used:
P. vivax [1] = assay: Synriam Phase III, N=317, randomized, open label, multi-centric, uncomplicated P. vivax malaria; assay type: in vivo; settings: Adults, Children >12 - 65 Y
P. vivax [2] = assay: Synriam Phase III, N=164, randomized, open label, multi-centric, uncomplicated P. vivax malaria; assay type: in vivo; settings: Children 6 months - 12 Y
[3] = test system: early ring stages from artemisinin-resistant and artemisinin-sensitive parasites (P. falciparum); assay: Ring Stage Assay (RSA) as per WHO's recommendation; assay type: cell-based; settings: at 700 nM

Row | Molecule | Proportion of aparasitemic & afebrile patients at 72 h (%) ITT (P. vivax [1]; 72 h, ITT) [%] | Proportion of aparasitemic & afebrile patients at 72 h (%) PP (P. vivax [1]; 72 h, PP) [%] | FCT Median (h) (P. vivax [1]; India) [vs. 24 h] | PCT Median (P. vivax [1]; India) [h] | Proportion of aparasitemic & afebrile patients at 72 h (%) ITT (P. vivax [2]; 72 h, ITT) [%] | Proportion of aparasitemic & afebrile patients at 72 h (%) PP (P. vivax [2]; 72 h, PP) | FCT Median (P. vivax [2]; India) [h] | PCT Median (P. vivax [2]; India) [h] | cross-resistance to DHA [3] | activity against early ring stages ([3]; artemisinin-resistant and artemisinin-sensitive parasites)
1 | CCN(CC)CCCC(C)Nc1ccnc2cc(Cl)ccc12 (stereo not shown) [Chloroquine] | 98.7 | 99.3 | 24 | 26 | 100 | PP: 100 vs. 100% | 18 | 24 |  | 
2 | Arterolane |  |  |  |  |  |  |  |  | no cross-resistance to DHA | extremely active
